Test results taken from PMC7216583 (Parasites & Vectors, 2020).
pEC50, pIC50, pKi: −log10 of the molar value. Where a name gives a salt, the structure may show the parent alone.

What was measured:
PI3Kγ = system: PI3Kγ; set-up: method as in S-inhibitor catalog; conditions: vendor brief description; ref S-inhibitor catalog; cited from earlier work
[1] = system: Toxoplasma gondii RH-2F tachyzoites; assay: microbe, parasite or virus in culture; conditions: 72 h, read-out: Parasite inhibition (%) mean, preliminary screen of compound library, mean
muscarinic receptor = target: muscarinic receptor; set-up: method as in S-inhibitor catalog; conditions: vendor brief description; ref S-inhibitor catalog; read-out: Kb, muscarinic receptor antagonist; cited from earlier work
human DGAT-1 = system: human DGAT-1; set-up: method as in S-inhibitor catalog; conditions: vendor brief description; ref S-inhibitor catalog; cited from earlier work
mouse DGAT-1 = system: mouse DGAT-1; set-up: method as in S-inhibitor catalog; conditions: vendor brief description; ref S-inhibitor catalog; cited from earlier work
PKA = target: PKA; set-up: method as in S-inhibitor catalog; conditions: vendor brief description; ref S-inhibitor catalog; cited from earlier work
fatty acid synthesis = system: fatty acid synthesis; set-up: method as in S-inhibitor catalog; conditions: vendor brief description; ref S-inhibitor catalog; cited from earlier work
AMPK = conditions: read-out: EC50, AMPK activation; vendor brief description; ref S-inhibitor catalog; cited from earlier work
Chk1 = system: Chk1; set-up: method as in S-inhibitor catalog; conditions: vendor brief description; ref S-inhibitor catalog; cited from earlier work
[2] = target: glycogen phosphorylase (GP); set-up: method as in S-inhibitor catalog; conditions: vendor brief description; ref S-inhibitor catalog; cited from earlier work
[3] = system: Pol I-driven transcription of rRNA; set-up: method as in S-inhibitor catalog; conditions: in HCT-116 cells; vendor brief description; ref S-inhibitor catalog; cited from earlier work
[4] = target: hydroxymethylglutaryl coenzyme A reductase (HMGCR); set-up: method as in S-inhibitor catalog; conditions: vendor brief description; ref S-inhibitor catalog; cited from earlier work
ErbB1 = system: ErbB1; set-up: method as in S-inhibitor catalog; conditions: vendor brief description; ref S-inhibitor catalog; cited from earlier work
ErbB2 = system: ErbB2; set-up: method as in S-inhibitor catalog; conditions: vendor brief description; ref S-inhibitor catalog; cited from earlier work
ErbB4 = system: ErbB4; set-up: method as in S-inhibitor catalog; conditions: vendor brief description; ref S-inhibitor catalog; cited from earlier work
CDK1 = system: CDK1; set-up: method as in S-inhibitor catalog; conditions: vendor brief description; ref S-inhibitor catalog; cited from earlier work
CDK4 = system: CDK4; set-up: method as in S-inhibitor catalog; conditions: vendor brief description; ref S-inhibitor catalog; cited from earlier work
CDK6 = system: CDK6; set-up: method as in S-inhibitor catalog; conditions: vendor brief description; ref S-inhibitor catalog; cited from earlier work
CDK7 = system: CDK7; set-up: method as in S-inhibitor catalog; conditions: vendor brief description; ref S-inhibitor catalog; cited from earlier work
MEK2 = system: MEK2; set-up: method as in S-inhibitor catalog; conditions: vendor brief description; ref S-inhibitor catalog; cited from earlier work
in vitro = conditions: human, Host viability (%) mean
IGF-1R = system: IGF-1R; set-up: method as in S-inhibitor catalog; conditions: vendor brief description; ref S-inhibitor catalog; cited from earlier work
ALK = conditions: read-out: IC50, ALK; vendor brief description; ref S-inhibitor catalog; cited from earlier work
p110β = target: p110β; set-up: method as in S-inhibitor catalog; conditions: vendor brief description; ref S-inhibitor catalog; cited from earlier work
[5] = target: opioid receptor-like1 (ORL1) receptor; set-up: method as in S-inhibitor catalog; conditions: vendor brief description; ref S-inhibitor catalog; cited from earlier work

O=C1NC(=O)C(=Cc2ccc(-c3ccc(F)cc3)o2)S1 (stereo in doubt) [CAY10505]
pIC50 (PI3Kγ): 7.52
inhibition of growth at 5 µM [1]: -7.4%

CC(C)N(CC[C@H](c1ccccc1)c1cc(CO)ccc1O)C(C)C [5-hydroxymethyl tolterodine (PNU 200577)]
Kb (muscarinic receptor): 0.84 nM
inhibition of growth at 5 µM [1]: -18.8%

O=C(Nc1ccccc1)Nc1ccc(-c2ccc(C(=O)[C@@H]3CCC[C@@H]3C(=O)O)cc2)cc1 [A 922500]
pIC50 (human DGAT-1): 8.15
pIC50 (mouse DGAT-1): 7.62
inhibition of growth at 5 µM [1]: 2%

Cc1n[nH]c2ccc(-c3cncc(OC[C@@H](N)Cc4ccccc4)c3)cc12 [A-674563]
pKi (PKA): 7.80
inhibition of growth at 5 µM [1]: 67.7%

N#Cc1c(O)c2c(-c3ccc(-c4ccccc4O)cc3)csc2[nH]c1=O [A-769662]
pIC50 (fatty acid synthesis): 5.49
inhibition of growth at 5 µM [1]: -13.9%

O=c1[nH]c2ccc(Cl)cc2c(N[C@@H]2CN3CCC2CC3)c1-c1nc2ccccc2[nH]1 [CHIR-124]
pIC50 (Chk1): 9.52
inhibition of growth at 5 µM [1]: 0%

CN(C)C(=O)[C@H](O)[C@H](Cc1ccccc1)NC(=O)c1cc2cc(Cl)ccc2[nH]1 [CP-91149]
pIC50 [2]: 6.89
inhibition of growth at 5 µM [1]: 28.6%

Cc1cnc(CNC(=O)c2c(=O)c3ccc(N4CCCN(C)CC4)nc3n3c2sc2ccccc23)cn1 [CX-5461]
pIC50 [3]: 6.85
inhibition of growth at 5 µM [1]: 2.5%

CCC(C)(Oc1ccc(C2(c3ccc(OC(C)(CC)C(=O)O)cc3)CCCCC2)cc1)C(=O)O (stereo not shown) [Clinofibrate]
pIC50 [4]: 3.33
inhibition of growth at 5 µM [1]: 0.1%

COc1cc2ncnc(Nc3ccc(F)c(Cl)c3)c2cc1NC(=O)/C=C/CN1CCCCC1 [Dacomitinib (PF299804,PF-00299804)]
inhibition of growth at 5 µM [1]: 0.4%

CN1CC[C@H](c2c(O)cc(O)c3c(=O)cc(-c4ccccc4Cl)oc23)[C@H](O)C1 [Flavopiridol (Alvocidib) HCl]
pIC50 (CDK7): 6.52
inhibition of growth at 5 µM [1]: 6.4%

CC(=O)Nc1cccc(-n2c(=O)n(C3CC3)c(=O)c3c(Nc4ccc(I)cc4F)n(C)c(=O)c(C)c32)c1 [GSK1120212 (Trametinib)]
inhibition of growth at 5 µM [1]: -8.7%

CNC(=O)c1c(F)cccc1Nc1nc(Nc2cc3c(cc2OC)CCN3C(=O)CN(C)C)nc2[nH]ccc12 [GSK1838705A]
viability at 72 h (in vitro): 72.8%
pIC50 (IGF-1R): 8.70
pIC50 (ALK): 9.30
inhibition of growth at 5 µM [1]: 70.9%

COc1ncc(-c2ccc3nccc(-c4ccnnc4)c3c2)cc1NS(=O)(=O)c1ccc(F)cc1F [GSK2126458]
inhibition of growth at 5 µM [1]: 21.3%

CCc1ccc(OCc2ccccc2C(=O)Nc2ccc3nc(C)cc(N)c3c2)cc1 [JTC-801]
viability at 72 h (in vitro): 16.4%
pIC50 [5]: 7.03
inhibition of growth at 5 µM [1]: 98.8%
